IC50 data for 68 molecules are collected here from PubChem BioAssay AID2401 (Southern Research Specialized Biocontainment Screening …, 2010).

The assay has as its system S. Typhimurium GFP reporter counter-screen, fluorescence, 4 h. Briefly: S. Typhimurium nonspecific reporter signal inhibition – Salmonella Typhimurium, GFP fluorescence, counter-screen for PhoP regulon inhibitor project, dose response (AID 2401).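 Note: S. typhimurium with Mg-insensitive nmpC-GFP reporter grown at 10 µM Mg2+; drop in reporter fluorescence reflects general culture growth inhibition.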
By IC50 is commonly meant the concentration that gives 50% inhibition. Turning to `CCN(CC(=O)NC(C)(C)C)C(=O)COc1c(Cl)cc(Cl)c2ccc(C)nc12`, the IC50 was 82.4 µM.

With `CC[C@H]1OC(=O)[C@H](C)[C@@H](O[C@H]2C[C@@](C)(OC)[C@@H](O)[C@H](C)O2)[C@H](C)[C@@H](O[C@@H]2O[C@H](C)C[C@H](N(C)C)[C@H]2O)[C@](C)(O)C[C@@H](C)CN(C)[C@H](C)[C@@H](O)[C@]1(C)O`, the IC50 was 2.37 µM.

Take `CC(=O)NC(c1cccs1)c1cc([N+](=O)[O-])c2cccnc2c1O` (stereo not drawn): the IC50 was 30.8 µM. For `O=C(Nc1ccccc1)Nc1ncc([N+](=O)[O-])s1`, the 50% inhibitory concentration (IC50) was 37.1 µM. Take `O=[N+]([O-])c1cc(Cl)c(O)c2ncccc12`: the IC50 was 5 µM. With `C(=N\Nc1ccccn1)/c1cccnc1`, the IC50 is 21.5 µM. On to `CCn1cc(C(=O)NCCN(C)C)c(=O)c2cc(F)c(N3CCN(C)CC3)cc21`, for which the concentration for half-maximal inhibition (IC50) was 89.8 µM.

For `COc1c(N2CCN(C(=S)Nc3ccc(F)cc3)C(C)C2)c(F)cc2c(=O)c(C(=O)O)cn(C3CC3)c12` (stereo not drawn), the IC50 was 15.7 µM. For the molecule `CCCCCCCCCCCCCCCC[n+]1cccc(C(=O)N(CC)CC)c1`, the half-inhibitory concentration (IC50) was 20.1 µM. Consider `O=C(N/N=C\C=C\c1ccc([N+](=O)[O-])o1)c1cccs1`, for which the IC50 is 20.9 µM. For `C/C(CC(=O)Nc1ccc(Cl)c(C(F)(F)F)c1)=N\NC(=O)c1ccccc1O`, the half-maximal inhibitory concentration (IC50) is 117 µM. On to `CCCC(=O)NC(c1ccc(C)cc1)c1ccc2cccnc2c1O` (stereo not drawn), for which the 50% inhibitory concentration (IC50) is 100 µM. In the case of `O=C1c2ccccc2C(=O)c2[nH]c(=O)[nH]c21`, the IC50 was 6.67 µM. The value for `CCn1nc(C(=O)O)c(=O)c2cc3c(cc21)OCO3` was 49 µM; that for `O=c1c2c(-c3ccccc3)csc2nc2c3ccccc3c(NCCN3CCOCC3)nn12` was 147 µM; that for `CC(=O)NC(c1ccc(Cl)cc1Cl)c1ccc2cccnc2c1O` (stereo not drawn) was 48.8 µM. For the molecule `CCCCCCCCCCCCCCCCn1cc[n+](CC(C)=O)c1`, the IC50 was 33.9 µM. Take `Oc1c(CN2CCCCC2)cc(COCc2ccccc2)c2cccnc12`: the IC50 is 80.5 µM. The value for `Cc1ccc(C(=O)O)cc1N=Cc1cc(Br)cc(Br)c1O` was 85.6 µM. For `COc1cccc(Nc2nc(NCC3CCCO3)c3ccccc3n2)c1` (stereo not drawn) the value was 87.5 µM. As to `Cc1ccc(C(C[N+](=O)[O-])c2c(N)n(C)c(=O)n(C)c2=O)cc1` (stereo not drawn), the half-maximal inhibitory concentration (IC50) is 15.1 µM. For `Clc1ccc(-c2c[n+](Cc3ccc(Cl)cc3Cl)c3n2CCCCC3)cc1` the value was 98.8 µM. For the molecule `COC(=O)C1C(O)C(C)C(O)C(C)(O)/C=C\C=C(/C)C(=O)Nc2c(C)c(OC(C)=O)c3c(c2O)C(=O)C(C)=C2OCOC(=C23)/C(C)=C/C(C)(O)C(O)C(C)C1O` (stereo not drawn), the 50% inhibitory concentration (IC50) is 12.6 µM. Take `NC1CCN(c2nc3c(cc2F)c(=O)c(C(=O)O)cn3-c2ccc(F)cc2F)C1` (stereo not drawn): the IC50 was 1.13 µM. Turning to `NC(N)=NN=C1CCCCCCCCCCC1`, the IC50 was 77.3 µM. Regarding `O=c1[nH]cc(F)c(=O)[nH]1`, the IC50 was 20.5 µM.

As to `CCOC(=O)N1CCN(C(=O)c2cn(CC)c3cc(N4CCN(C)CC4)c(F)cc3c2=O)CC1`, the IC50 was 12 µM.

For the molecule `COc1ccc2[nH]c3c(C)c4ccncc4c(C)c3c2c1`, the half-maximal inhibitory concentration (IC50) was 20.5 µM. Consider `CCCCC(CC)CN=C(N)NC(N)=NCCCCCCN=C(N)NC(N)=NCC(CC)CCCC` (stereo not drawn), for which the half-inhibitory concentration (IC50) is 5.51 µM. As for `NC(N)=N/N=C/c1ccc(OCc2ccc(Cl)cc2)cc1`, the half-inhibitory concentration (IC50) is 35.7 µM.

As for `CCn1cc(C(=O)O)c(=O)c2cc(F)c(N3CCN(C(=S)NC(=O)c4ccccc4)CC3)cc21`, the IC50 is 29.8 µM. Take `CCCCCCCCCC[N+](C)(C)CC/C=C1/c2ccccc2Sc2ccc(Cl)cc21`: the concentration for half-maximal inhibition (IC50) was 18.9 µM. The value for `COc1c(F)c(F)cc2c(=O)c(C(=O)O)cn(C3CC3)c12` was 85.6 µM; that for `Clc1ccc(Cl)c(OCCCCNCc2ccccc2)c1` was 97.6 µM. In the case of `O=[N+]([O-])c1cc(CN2CCCC2)c2cccnc2c1O`, the half-inhibitory concentration (IC50) is 40.6 µM. Take `CC(=O)NC(c1cccc([N+](=O)[O-])c1)c1ccc2cccnc2c1O` (stereo not drawn): the IC50 is 47.1 µM. With `CCn1cc(C(=O)O)c(=O)c2cc(F)c(N3CCN(C)CC3)cc21`, the IC50 was 2.15 µM.

Consider `O=C(Nc1nnc(-c2cccs2)o1)c1cccc(Oc2ccccc2)c1`, for which the 50% inhibitory concentration (IC50) is 40.8 µM. Consider `CN1CCc2c(sc(NC(=O)c3ccc([N+](=O)[O-])o3)c2C(N)=O)C1`, for which the IC50 is 47.7 µM. The value for `CN1CCN(C(c2ccc(Br)cc2)c2cc(Cl)c3cccnc3c2O)CC1` (stereo not drawn) was 19.8 µM; that for `COC(=O)C1C(O)C(C)C(O)C(C)/C=C\C=C(/C)C(=O)Nc2c(C)c(OC(C)=O)c3c(c2O)C(=O)C(C)=C2OCOC(=C23)/C(C)=C/C(C)(O)C(O)C(C)C1O` (stereo not drawn) was 22.2 µM; that for `CCN(CC)c1ccc(/C=N/Nc2nc3ccccc3[nH]2)c(O)c1` was 33.7 µM.

For `O=[N+]([O-])/C=C/c1cc2ccccc2[nH]1`, the IC50 is 138 µM. Turning to `Oc1cccc(Nc2nc(NCC3CCCO3)c3ccccc3n2)c1` (stereo not drawn), the IC50 was 99.8 µM. For `Cc1ccc(C(=O)N/N=C/c2cc(Br)ccc2O)cn1` the value was 55.7 µM; for `CCOC(=O)c1ccc(-c2ccc(C3Nc4ccccc4C(=O)N3O)o2)cc1` (stereo not drawn), 142 µM. The value for `CC(C)Oc1ccc(Cc2cnc(N)nc2N)cc1` was 34 µM; that for `Cc1ccc(-c2csc(N=C(N)N)n2)c(C)c1` was 57.2 µM; that for `O=C(N/N=C/c1c[nH]c2ccccc12)c1cc(-c2cccc3ccccc23)n[nH]1` was 85.3 µM.

Regarding `O=[N+]([O-])c1ccc(O)c2ncccc12`, the IC50 is 2.37 µM. For `O=C(Nc1ccccc1)Nc1ccc(Cl)c([N+](=O)[O-])c1`, the IC50 is 42.4 µM. Consider `O=C1NC(=S)S/C1=C\C=C\c1ccc([N+](=O)[O-])o1`, for which the half-maximal inhibitory concentration (IC50) is 21.7 µM.

On to `O=C1C=C(O)c2c(O)cc(O)c(O)c2C1=O`, for which the IC50 was 76.8 µM. Turning to `CCCCCCCCCCOC(=O)Cn1c(COc2ccc(C)cc2)[n+](C)c2ccccc21`, the 50% inhibitory concentration (IC50) was 19.8 µM. In the case of `NC1=NC[C@H](Cc2ccccc2)N1CCCCC1CCCCC1`, the IC50 was 45.9 µM. As for `CNC[C@H](Cc1ccccc1)NC[C@@H](Cc1cccc2ccccc12)NCCc1ccc(C)cc1`, the half-inhibitory concentration (IC50) is 26.2 µM. With `CCCCCCCCCn1c2c(c(=N)c3c1CCC3)CCCC2`, the IC50 is 31.3 µM.

Turning to `O=C(N/N=C/c1ccc(Sc2ccccn2)o1)c1cc2ccccc2cc1O`, the half-maximal inhibitory concentration (IC50) was 107 µM. Take `CCCCCCCNC(=O)C1(CC2CC(c3ccc(Cl)cc3)=NO2)CCNCC1` (stereo not drawn): the half-inhibitory concentration (IC50) was 42.5 µM. `C#CCOCCOCCOCCNc1nc(N2CCN(C(=O)CCCCCCCCCCNC(=O)[C@H](CCCN=C(N)N)n3cc(C[C@@H](C)CC)nn3)CC2)nc(N2CCN(C(=O)CCCCCCCCCCNC(=O)[C@@H]([C@H](C)CC)n3cc(CCCCCN)nn3)CC2)n1`: the IC50 was 74.9 µM. Consider `Nc1ncn(C2O[C@H](CO)[C@@H](O)[C@H]2O)c(=O)n1` (stereo partly drawn), for which the IC50 is 30.8 µM.

Take `NC1=NC[C@@H](Cc2ccc(O)cc2)N1CCCCC1CCCCC1`: the IC50 was 32.9 µM. For the molecule `Fc1ccc(Nc2nc(NCc3ccco3)c3ccccc3n2)cc1`, the IC50 was 28.2 µM. For the molecule `Nc1nc(F)nc2c1ncn2[C@@H]1O[C@H](CO)[C@@H](O)[C@H]1O`, the 50% inhibitory concentration (IC50) was 32.8 µM.

For `O=[N+]([O-])c1cc(F)c2cccnc2c1O`, the half-inhibitory concentration (IC50) was 9.05 µM. For `C#CCOCCOCCOCCNc1nc(N2CCN(C(=O)CCCCCCCCCCNC(=O)[C@H](CO)n3cc(CCCCCN)nn3)CC2)nc(N2CCN(C(=O)CCCCCCCCCCNC(=O)[C@H](CCCN=C(N)N)n3cc(C[C@@H](C)CC)nn3)CC2)n1` the value was 86.2 µM; for `COc1ccc(C(=O)N/N=C/c2sc3ccccc3c2O)cc1`, 41.5 µM; for `Cc1ccc(Cn2c(=N)n(CC(=O)c3ccc([N+](=O)[O-])cc3)c3ccccc32)cc1`, 103 µM.
